Columns and labels:
[1] = test system: IL-1Ra release from human primary monocytes; experiment: IL-1Ra release from human primary monocytes, immunoassay (ELISA) of supernatants; format: cell-based; details: primary human monocytes of healthy donors, 25 and 50 μg mL^−1, 48 h
Experimental: (§1) As an activity screen we focused on interleukin‐1 receptor antagonist (IL‐1Ra), a cytokine released by circulating antigen presenting cells (APC) in response to GA.[15, 35] […] To test our dendrimers, we quantified by immunoassay the release of IL‐1Ra from human primary monocytes of healthy donors, an easily accessible type of APC, stimulated or not by addition of lipopolysaccharide (LPS), which in our hands provided a reliable read‐out.[15] We tested at defined weight/volume (25 and 50 μg mL^−1 compound as typically reported for GA)[15, 35] to account for a possible activity increase with MW as often observed with dendrimers when using molarity. In the initial screen the levels of secreted IL‐1Ra remained below 1 ng mL^−1 for all the smaller test compounds as well as with the linear peptide analogs of GA.
(§2) Figure 2 Cytokine level of IL‐1Ra in supernatants of primary human monocytes of healthy donors treated with peptide dendrimers, evaluated by ELISA (bars, left vertical axis) and mRNA levels (▴, right vertical axis). […] For mRNA levels evaluation, 2×10^6 cells 3 mL^−1 in 6 well plates were incubated with 50 μg mL^−1 dendrimer or GA for 18 h. […]
(§3) Enzyme-linked immunosorbent assay (ELISA)
(§4) Monocytes (5×10^4 cells/200 μL well; 96-well plates) were preincubated for 1 h with or without compounds in RPMI-1640 medium supplemented with 10% heat-inactivated FBS, 50 μg/mL streptomycin, 50 U/mL penicillin, 2 mM L-glutamine, and 5 μg/mL polymyxin B sulfate and then cultured for 48 h in the presence or absence of LPS (100 ng/mL) (2). The production of IL-1Ra was measured in culture supernatants by commercially available enzyme immunoassay according to manufacture protocol.
(§5) Figure S2. Cytokine level of IL-1Ra in supernatants of monocytes for active dendrimers and analogues evaluated by ELISA assay on primary human monocytes of healthy donors. 5×10^4 cells/200 µL in 96 well plates, were incubated with dendrimers or GA as a control for 48 h in presence or absence of LPS (100 ng/mL), in a range of concentrations (50-25 µg/mL) (mean ± SD, n = 2 different experiments). The results are present as the difference between each sample and the non-treated sample to take into account the difference between base line for each donor.
(§6) Figure S3. Cytokine level of IL-1Ra in supernatants of monocytes for active dendrimers and […]
(§7) presence or absence of LPS (100 ng/mL), in a range of concentrations (100-12.5 µg/mL) (mean ± SD, n = 3 different experiments). […]

IL-1β = IL-1β time profile in monocytes, RT-qPCR; format: cell-based, human; details: 50 µg/mL, inactivated and LPS (100 ng/mL) activated
Experimental: (§8) For closer characterization, we selected dendrimer 1 due to its smaller size and the presence of a cysteine residue that could be used for labelling. […] Furthermore, dendrimer 1 induced the release of IL‐1Ra both with and without LPS activation, but in the latter case the effect was detected only after 18 h incubation (Figure S5e/f).
(§9) Enriched monocytes after Percoll centrifugation (4×10^6 cells/3 mL well; 6-well plates) were preincubated for 1 h with or without compounds in RPMI-1640 medium supplemented with 10% heat-inactivated FBS, 50 μg/mL streptomycin, 50 U/mL penicillin, 2 mM L-glutamine, and then incubated for the indicated duration. After the incubation cells were collected, total RNA was extracted, reverse transcribed and analyzed by SYBR Green Master Mix. As a housekeeping gene was used Actin 5'-CAC TGG GGG CTA CTG GAC-3', 3'-AACATGGTGTTGGCAGAAACT-5', IL-1Ra 5'-TTCCTGTTCCATTCAGAGACG -3', 3'-CTTCTGGTTAACATCCCAGATTC -5'.
(§10) Figure S5. Dendrimer 1 affected mRNA levels in both LPS -activated and resting monocytes.
(§11) Monocytes 4 ×10^6 cells/3 mL in 6 well plates were incubated for indicated time with 50 µg/mL of 1 or without any treatment (NT) (a, c, e); or preincubated for 1 h with 100 ng/mL of LPS, and then with 50 µg/mL of 1 (b, d, f) or without any treatment (NT). […]

TNF-α = TNF-α time profile in monocytes, RT-qPCR; format: cell-based, human; details: 50 µg/mL, LPS (100 ng/mL) activated
Experimental: as §8, §9, §10, §11

[2] = Circular dichroism spectroscopy; format: physicochemical; details: 100 μg/mL, 8 mM phosphate buffer pH 7.2/7.4
Experimental: In terms of stereochemistry, activity was lost with D‐enantiomers D‐1 and D‐4, similar to the inactivity reported for D‐enantiomeric GA.[2]
Circular dichroism (CD) experiments were measured on a Jasco J-715 Spectropolarimeter. All the experiments were performed using Hellma Suprasil 110-QS 0.1 cm cuvettes. For each peptide, the measurements were performed in phosphate buffer (PB, pH=7.2, 8 mM) and in the presence of 5 mM dodecylphosphocholine. The concentration of the peptides was 100.0 μg/mL and each sample was measured using one accumulation. The scan rate was 10 nm/min, pitch 0.5 nm, response 16 sec and bandwidth 1.0 nm. The nitrogen flow was kept >8.5 L/min. After each measurement, the cuvettes were washed successively with 1 M HCl, milli-Q H2O and PB buffer. The baseline was recorded under the same conditions and subtracted manually.
Figure S12. Circular dichroism spectra of GA, 1 and 4 (100 μg/mL) in 8 mM phosphate buffer at pH 7.4 (a) or in presence of 5 mM dodecylphosphocholine. Percentage of α-helix and β- sheet was processed by Dichroweb using the CONTIN analysis program and reference set 3.
(1 picture or pasted object on this page, not shown here)

[3] = test system: IL-1Ra release from human primary monocytes; experiment: IL-1Ra release from human primary monocytes, immunoassay (ELISA) of supernatants; format: cell-based; parameters: key: +: Ability to induce IL-1Ra on primary monocytes after 48 h of incubation; Ability to induce IL-1Ra on primary monocytes after 48 h of incubation; details: Table S1 initial library; primary monocytes, 48 h
Experimental: as §1, §2, §3, §4, §5, §6, §7

## (KA)8(KAK)4(KEKA)2KAKEAYCA-NH2 [compound 1, G3 peptide dendrimer]
[1]
  IL-1Ra release activity (in words): comparable or higher than GA
IL-1β
  production of IL-1β: significantly inhibited
TNF-α
  release of TNF-α: inhibited
[2]
  conformation by CD spectra: unordered conformation
[3]
  Act. (ability to induce IL-1Ra): +
